The values that follow come from patent US20100099732A1, “MEDICAMENTS USEFUL AS POTASSIUM CHANNEL MODULATORS” (NeuroSearch A/S, priority 2007, published 2010).

This assay addresses T1, BK channels (Homo sapiens, UniProt Q12791).
T1 construct: expressed in transfected cells; host or cells: Xenopus laevis oocytes
The experiment in a line: BK channel opening activity, two-electrode voltage clamp in Xenopus laevis oocytes. It is filed as cell-based. As to the method:
In this example the BK channel opening activity of a phenylcarbamoyl-methyl-indole derivative for use according to the invention, i.e. 5-Chloro-3-[(3-chloro-phenylcarbamoyl)-methyl]-1H-indole-2-carboxylic acid (herein designated Compound A), is determined using BK channels heterologously expressed in Xenopus laevis oocytes.
The electrical current through the BK channel is measured conventional two-electrode voltage clamp. BK current is activated by repeated step protocols. In brief, this protocol goes from a resting membrane potential of −40 mV lasting for 5 s to a depolarised step to +20 mV lasting for 1 s. The protocol was repeated continuously.
Having reached stable current level, Compound A (10 μM), was added. A marked increase in the current activated by depolarisation could be observed. The BK current activity returned to baseline after approximately 30-60 seconds of wash. In summary BK current was increased by 92±23% in the presence of 10 μM of compound A (n=3, SD value).

T1 sequence (Q12791 whole entry): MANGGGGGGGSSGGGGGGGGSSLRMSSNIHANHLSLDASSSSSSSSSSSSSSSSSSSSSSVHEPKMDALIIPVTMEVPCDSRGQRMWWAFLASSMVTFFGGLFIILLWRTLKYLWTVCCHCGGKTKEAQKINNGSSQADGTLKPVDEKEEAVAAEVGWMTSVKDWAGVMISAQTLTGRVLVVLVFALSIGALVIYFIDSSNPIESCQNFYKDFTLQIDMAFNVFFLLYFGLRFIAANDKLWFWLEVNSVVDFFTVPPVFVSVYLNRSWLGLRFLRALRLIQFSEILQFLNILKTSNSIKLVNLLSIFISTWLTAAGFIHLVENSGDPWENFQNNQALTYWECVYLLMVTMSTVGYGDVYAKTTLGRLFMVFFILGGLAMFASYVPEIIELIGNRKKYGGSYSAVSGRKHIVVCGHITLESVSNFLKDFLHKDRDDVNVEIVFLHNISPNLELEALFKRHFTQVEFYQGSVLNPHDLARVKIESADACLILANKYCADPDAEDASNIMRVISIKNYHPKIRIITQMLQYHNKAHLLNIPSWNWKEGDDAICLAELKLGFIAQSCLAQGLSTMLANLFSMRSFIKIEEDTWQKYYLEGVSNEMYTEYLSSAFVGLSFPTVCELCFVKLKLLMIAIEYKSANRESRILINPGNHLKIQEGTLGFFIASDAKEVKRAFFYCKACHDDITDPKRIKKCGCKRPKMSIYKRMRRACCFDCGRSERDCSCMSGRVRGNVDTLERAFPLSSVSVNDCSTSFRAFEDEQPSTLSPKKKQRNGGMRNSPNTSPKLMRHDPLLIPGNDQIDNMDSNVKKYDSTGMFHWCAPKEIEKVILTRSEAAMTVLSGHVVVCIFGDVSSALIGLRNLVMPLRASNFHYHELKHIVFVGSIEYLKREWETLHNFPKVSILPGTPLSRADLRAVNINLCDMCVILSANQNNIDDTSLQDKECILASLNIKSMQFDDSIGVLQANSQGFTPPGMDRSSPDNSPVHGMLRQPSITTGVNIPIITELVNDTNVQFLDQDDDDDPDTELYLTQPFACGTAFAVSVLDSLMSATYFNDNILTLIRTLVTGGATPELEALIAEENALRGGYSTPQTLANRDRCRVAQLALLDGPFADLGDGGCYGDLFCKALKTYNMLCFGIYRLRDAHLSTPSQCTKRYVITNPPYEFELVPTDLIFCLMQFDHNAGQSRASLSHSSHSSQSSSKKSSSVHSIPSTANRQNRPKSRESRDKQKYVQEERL

As to `O=C(Cc1c(C(=O)O)[nH]c2ccc(Cl)cc12)Nc1cccc(Cl)c1` [Compound A, 5-Chloro-3-[(3-chloro-phenylcarbamoyl)-methyl]-1H-indole-2-carboxylic acid], the BK current increase (10 μM compound, BK channels heterologously expressed in Xenopus laevis oocytes, depolarising step to +20 mV, n=3, SD value) is 92±23%. For the same molecule, the “BK current activity return to baseline after wash” value (wash after 10 μM compound, Xenopus laevis oocytes) lay within 30 to 60 s.
